Molecular target: human P2X3 receptor (Homo sapiens (Human), UniProt P56373)
Assay: P2X3 receptor inhibition, ATP-evoked Fluo-3 calcium fluorescence (FDSS 3000)
Format: cell-based
Details: C6BU-1 cell transfected with human P2X3 receptor gene; ATP-evoked Fluo-3 fluorescence
Summary of the method: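 C6BU-1 cells stably transfected with human P2X3, loaded with 4 μM Fluo-3-AM for 1 h at 37 °C in HEPES buffer pH 7.5 with probenecid. Compound added 5 min before 40 nM ATP solution; fluorescence followed 3 min. IC50 from ratio of peak post-ATP to baseline fluorescence.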

Chain of human P2X3 receptor (P56373 whole entry): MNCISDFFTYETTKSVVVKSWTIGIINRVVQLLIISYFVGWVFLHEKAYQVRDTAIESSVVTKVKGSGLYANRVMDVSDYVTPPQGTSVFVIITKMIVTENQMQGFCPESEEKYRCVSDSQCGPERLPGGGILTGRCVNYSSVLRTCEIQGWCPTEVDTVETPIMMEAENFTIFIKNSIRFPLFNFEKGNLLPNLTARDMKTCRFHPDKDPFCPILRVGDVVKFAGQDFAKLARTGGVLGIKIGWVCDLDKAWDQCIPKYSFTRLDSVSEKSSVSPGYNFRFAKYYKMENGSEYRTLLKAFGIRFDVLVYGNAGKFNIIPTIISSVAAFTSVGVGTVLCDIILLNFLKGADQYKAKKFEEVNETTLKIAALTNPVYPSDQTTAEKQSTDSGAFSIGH

Row | IC50 [nM] | Compound
1 | 101 | C[S+]([O-])CCOc1ccccc1C1c2c(C(C)(C)C)n[nH]c2C(=O)N1c1ccc(-c2ccon2)cc1 (centres unmarked) [II-168]
2 | 4 | CC(C)(C)c1n[nH]c2c1C(c1ccccc1OCC(N)=O)N(c1ccc(-c3ccsc3)cc1)C2=O (centres unmarked) [II-169]
3 | 34 | CNC(=O)C(C)(C)c1n[nH]c2c1C(c1ccccc1OC)N(c1ccc(-c3ccsc3)cc1)C2=O (centres unmarked) [II-170]
4 | 7 | CC(C)(C)c1n[nH]c2c1C(c1ccccc1OCCNS(C)(=O)=O)N(c1ccc(-c3ccsc3)cc1)C2=O (centres unmarked) [II-171]
5 | 11 | COc1ccccc1C1c2c(C(C)(C)C(=O)N(C)C)n[nH]c2C(=O)N1c1ccc(-c2ccsc2)cc1 (centres unmarked) [II-172]
6 | 4 | CC(C)(C)c1n[nH]c2c1C(c1ccccc1OCC#N)N(c1ccc(-c3ccsc3)cc1)C2=O (centres unmarked) [II-173]
7 | 3 | CC(C)(C)c1n[nH]c2c1C(c1ccccc1OCc1nnn[nH]1)N(c1ccc(-c3ccsc3)cc1)C2=O (centres unmarked) [II-174]
8 | 3 | CC(C)c1n[nH]c2c1C(c1ccccc1OCc1nnn[nH]1)N(c1ccc(-c3ccsc3)cc1)C2=O (centres unmarked) [II-175]
9 | 10 | CC(=O)NCCOc1ccccc1C1c2c(C(C)C)n[nH]c2C(=O)N1c1ccc(-c2ccsc2)cc1 (centres unmarked) [II-176]
10 | 149 | COc1ccccc1C1c2c(-c3ccco3)n[nH]c2C(=O)N1c1ccc(-c2ccsc2)cc1 (centres unmarked) [II-178]
11 | 262 | COc1ccccc1C1c2c(C(=O)N(C)C)n[nH]c2C(=O)N1c1ccc(-c2ccsc2)cc1 (centres unmarked) [II-180]
12 | 301 | CNC(=O)c1n[nH]c2c1C(c1ccccc1OC)N(c1ccc(-c3ccsc3)cc1)C2=O (centres unmarked) [II-181]
13 | 60 | COc1ccccc1C1c2c(CO)n[nH]c2C(=O)N1c1ccc(-c2ccsc2)cc1 (centres unmarked) [II-182]
14 | 460 | CCOC(=O)C1c2c(C(C)C)n[nH]c2C(=O)N1c1ccc(-c2ccsc2)cc1 (centres unmarked) [II-183]
15 | 12 | CC(C)c1n[nH]c2c1C(c1ccccc1OCC(C)(C)O)N(c1ccc(-c3ccsc3)cc1)C2=O (centres unmarked) [II-184]
16 | 11 | CC(C)c1n[nH]c2c1C(c1ccccc1OCC(=N)NO)N(c1ccc(-c3ccsc3)cc1)C2=O (centres unmarked) [II-185]

Row | IC50 [nM] | Compound
17 | 156 | COc1ccccc1C1c2c(C(C)=O)n[nH]c2C(=O)N1c1ccc(-c2ccsc2)cc1 (centres unmarked) [II-188]
18 | 897 | COc1ccccc1C1c2c(C(C)C)n[nH]c2CN1C(=O)Nc1ccc(-c2ccsc2)cc1 (centres unmarked) [II-189]
19 | 322 | COc1ncccc1C1c2c(C(C)(C)C)n[nH]c2C(=O)N1c1ccc(-c2cc(C)no2)cc1 (centres unmarked) [II-191]
20 | 222 | COc1ncccc1C1c2c(C(C)(C)C)n[nH]c2C(=O)N1c1ccc(C2=NCCS2)cc1 (centres unmarked) [II-192]
21 | 195 | COc1ncccc1C1c2c(C(C)(C)C)n[nH]c2C(=O)N1c1ccc(-c2nccs2)cc1 (centres unmarked) [II-193]
22 | 392 | COc1ncccc1C1c2c(C(C)(C)C)n[nH]c2C(=O)N1c1ccc(-c2noc(C)n2)cc1 (centres unmarked) [II-194]
23 | 944 | COc1ncccc1C1c2c(C(C)(C)C)n[nH]c2C(=O)N1c1ccc(-c2nc(C)no2)cc1 (centres unmarked) [II-195]
24 | 783 | COc1ccccc1C1c2c(C(C)(C)C)n[nH]c2C(=O)N1c1ccc(C)cc1 (centres unmarked) [II-196]
25 | 106 | COc1ccccc1C1c2c(C(C)(C)C)n[nH]c2C(=O)N1c1ccc(C(C)C)cc1 (centres unmarked) [II-197]
26 | 123 | COc1ccc(C2(c3n[nH]c4c3C(c3ccccc3OC)N(c3ccc(-c5ccon5)cc3)C4=O)CC2)cc1 (centres unmarked) [II-198]
27 | 113 | COc1ccccc1C1c2c(C(C)(C)c3ccccc3)n[nH]c2C(=O)N1c1ccc(-c2ccon2)cc1 (centres unmarked) [II-199]
28 | 448 | COc1ccc(-c2n[nH]c3c2C(C2CCCCC2)N(Cc2cc(C)on2)C3=O)cc1 (centres unmarked) [II-200]
29 | 33 | COc1ccccc1C1c2c(C(C)(C)C)n[nH]c2C(=O)N1c1ccc(SC)cc1 (centres unmarked) [II-201]
30 | 28 | COc1ccccc1C1c2c(C(C)(C)C)n[nH]c2C(=O)N1c1ccc(-c2ccco2)cc1 (centres unmarked) [II-203]
31 | 17 | COc1ccccc1C1c2c(C(C)(C)C)n[nH]c2C(=O)N1c1ccc(-c2ccsc2)cc1 (centres unmarked) [II-204]

Row | Compound | IC50 [nM]
32 | COc1ccccc1C1c2c(C(C)(C)C)n[nH]c2C(=O)N1c1ccc(N(C)C)cc1 (centres unmarked) [II-202] | 76
